Tested on: 292921-168-R tumor spheroid viability
Experiment: Anticancer human tumor 292921-168-R patient-derived pancreatic carcinoma cell line growth inhibition
Conditions: spheroids with HUVEC and MSC; for IC50: curve of first compound; for viability, T/C: stronger effect = lower value
Procedure, shortened: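 Complex spheroids of malignant cells with endothelial cells and mesenchymal stem cells; agents alone or combined, from near clinical Cmax (or 10 microM if unknown) down in half-log steps, 0.25% DMSO final.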
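Also: spheroids exposed to compounds for 7 days.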

Cc1cc(C)c(CNC(=O)c2cc(-c3ccc(CN4CCOCC4)cc3)cc3c2cnn3C2CCCC2)c(=O)[nH]1 + Cn1nnc2c(C(N)=O)ncn2c1=O
IC50 (second compound 1 µM): > 10000 nM | IC50 (second compound 3.16 µM): > 10000 nM | IC50 (second compound 10 µM): > 10000 nM | IC50 (second compound 31.6 µM): > 10000 nM | IC50 (second compound 100 µM): > 10000 nM | viability, T/C (second compound 1 µM, first compound 0.0316 µM): 91.6% | viability, T/C (second compound 1 µM, first compound 0.1 µM): 92.7% | viability, T/C (second compound 1 µM, first compound 0.316 µM): 97.4% | viability, T/C (second compound 1 µM, first compound 1 µM): 86.6% | viability, T/C (second compound 1 µM, first compound 3.16 µM): 78.7% | viability, T/C (second compound 1 µM, first compound 10 µM): 54.3% | viability, T/C (second compound 3.16 µM, first compound 0.0316 µM): 94.2% | viability, T/C (second compound 3.16 µM, first compound 0.1 µM): 96.6% | viability, T/C (second compound 3.16 µM, first compound 0.316 µM): 94.9% | viability, T/C (second compound 3.16 µM, first compound 1 µM): 92.4% | viability, T/C (second compound 3.16 µM, first compound 3.16 µM): 85.2% | viability, T/C (second compound 3.16 µM, first compound 10 µM): 60.4% | viability, T/C (second compound 10 µM, first compound 0.0316 µM): 86.8% | viability, T/C (second compound 10 µM, first compound 0.1 µM): 94.4% | viability, T/C (second compound 10 µM, first compound 0.316 µM): 96% | viability, T/C (second compound 10 µM, first compound 1 µM): 92.5% | viability, T/C (second compound 10 µM, first compound 3.16 µM): 83.7% | viability, T/C (second compound 10 µM, first compound 10 µM): 56.1% | viability, T/C (second compound 31.6 µM, first compound 0.0316 µM): 88.5% | viability, T/C (second compound 31.6 µM, first compound 0.1 µM): 86.4% | viability, T/C (second compound 31.6 µM, first compound 0.316 µM): 83.5% | viability, T/C (second compound 31.6 µM, first compound 1 µM): 92.5% | viability, T/C (second compound 31.6 µM, first compound 3.16 µM): 85.7% | viability, T/C (second compound 31.6 µM, first compound 10 µM): 51.1% | viability, T/C (second compound 100 µM, first compound 0.0316 µM): 83.5% | viability, T/C (second compound 100 µM, first compound 0.1 µM): 87.2% | viability, T/C (second compound 100 µM, first compound 0.316 µM): 83.5% | viability, T/C (second compound 100 µM, first compound 1 µM): 77.2% | viability, T/C (second compound 100 µM, first compound 3.16 µM): 79.1% | viability, T/C (second compound 100 µM, first compound 10 µM): 52.5%

Cn1ncnc1[C@H]1c2n[nH]c(=O)c3cc(F)cc(c23)N[C@@H]1c1ccc(F)cc1 + Cn1nnc2c(C(N)=O)ncn2c1=O
IC50 (second compound 1 µM): 393 nM | IC50 (second compound 3.16 µM): 439 nM | IC50 (second compound 10 µM): 143 nM | IC50 (second compound 31.6 µM): 19 nM | IC50 (second compound 100 µM): < 9.49 nM | viability, T/C (second compound 1 µM, first compound 0.00949 µM): 88.4% | viability, T/C (second compound 1 µM, first compound 0.03 µM): 81.3% | viability, T/C (second compound 1 µM, first compound 0.0949 µM): 73.8% | viability, T/C (second compound 1 µM, first compound 0.3 µM): 58.8% | viability, T/C (second compound 1 µM, first compound 0.949 µM): 27.7% | viability, T/C (second compound 1 µM, first compound 3 µM): 9.76% | viability, T/C (second compound 3.16 µM, first compound 0.00949 µM): 81.1% | viability, T/C (second compound 3.16 µM, first compound 0.03 µM): 82% | viability, T/C (second compound 3.16 µM, first compound 0.0949 µM): 73% | viability, T/C (second compound 3.16 µM, first compound 0.3 µM): 59.5% | viability, T/C (second compound 3.16 µM, first compound 0.949 µM): 32% | viability, T/C (second compound 3.16 µM, first compound 3 µM): 11.1% | viability, T/C (second compound 10 µM, first compound 0.00949 µM): 75.1% | viability, T/C (second compound 10 µM, first compound 0.03 µM): 68.1% | viability, T/C (second compound 10 µM, first compound 0.0949 µM): 55.8% | viability, T/C (second compound 10 µM, first compound 0.3 µM): 39.2% | viability, T/C (second compound 10 µM, first compound 0.949 µM): 23.3% | viability, T/C (second compound 10 µM, first compound 3 µM): 9.97% | viability, T/C (second compound 31.6 µM, first compound 0.00949 µM): 58.4% | viability, T/C (second compound 31.6 µM, first compound 0.03 µM): 44.4% | viability, T/C (second compound 31.6 µM, first compound 0.0949 µM): 31.9% | viability, T/C (second compound 31.6 µM, first compound 0.3 µM): 24% | viability, T/C (second compound 31.6 µM, first compound 0.949 µM): 15.8% | viability, T/C (second compound 31.6 µM, first compound 3 µM): 8.83% | viability, T/C (second compound 100 µM, first compound 0.00949 µM): 24.2% | viability, T/C (second compound 100 µM, first compound 0.03 µM): 19.3% | viability, T/C (second compound 100 µM, first compound 0.0949 µM): 17.4% | viability, T/C (second compound 100 µM, first compound 0.3 µM): 14.6% | viability, T/C (second compound 100 µM, first compound 0.949 µM): 11.7% | viability, T/C (second compound 100 µM, first compound 3 µM): 7.45%
